Earlier results as cited in patent US7803786B2, “Pharmaceutical co-crystal compositions and related methods of use” (Transform Pharmaceuticals, Inc., priority 2004, dated 2010).

Key:
[1] = co-crystal former; multiple values for multiple functionalities
[2] = Cambridge Structural Database (piracetam), Merck Index (gentisic acid)

| Structure (SMILES) | pKa Values [1] | known polymorphism of the free form [2] |
| --- | --- | --- |
| O=C(O)C(O)C(O)C(O)C(O)CO (stereo not drawn) [Gluconic acid] | 3.76 | – |
| O=C(O)c1cc(O)ccc1O [gentisic acid] | – | dimorphic |
| NC(=O)CN1CCCC1=O [piracetam] | – | Three polymorphs |
